Measurements published in patent US6727407B1, “NUCLEIC ACIDS ENCODING THE ARABIDOPSIS PROTEIN KINASE β-SUBUNIT CKB3 AND A METHOD OF ALTERING CIRCADIAN RHYTHMS AND FLOWERING IN A PLANT BY TRANFORMING WITH A NUCLEIC ACID ENCODING A PROTEIN KINASE β-SUBUNIT” (Regents of the University of California, priority 1998, dated 2004).
Values belong to the compound of their own block, whether it stands above or below them.

How the values were obtained:
[1] = system: CK2-like activity in Arabidopsis whole-cell extracts; assay: In vitro kinase assay: phosphorylation of GST-CCA1 by Arabidopsis whole-cell extracts; type: biochemical; details: 10 mM inhibitor, 160 μg WCE, [γ-32P]ATP, 30° C. 30 min
Experimental: (§1) GST (lanes 1 and 4) or GST-CCA1 (lanes 2, 3, 5-7) were incubated with 160 μg of WCE in the absence (lanes 1, 2, 4, and 5) or presence (lane 3) of 10 mM 2,3-diphosphoglycerate (D. G.), with recombinant CK2 (rCK2) in the absence (lane 6) or presence of 10 mM 2,3-diphosphoglycerate (lane 7) together with [γ-^32P]ATP (lanes 1-3, 6, and 7) or [γ-^32P]GTP (lanes 4 and 5). The arrow indicates the position of the full-length GST-CCA1 protein.
(§2) GST-CCA1 bound to glutathione-agarose beads was resuspended in 50 μl of CK2 buffer (50 mM Tris-HCl, pH 7.5, 10 mM MgCl2, 100 mM NaCl, 1 mM DTT. 0.1 mM ATP or GTP) in the presence of 5-10 μCi of [γ-^32P]ATP or GTP. The reaction was started by adding CK2 or whole-cell extracts (WCE) and incubating samples at 30° C. for 30 min. WCE were prepared as described previously (3) except that the phosphatase inhibitor cocktail (5 mM NH4VO3, 0.2 mM ammonium molybdate, 1 mM EGTA, 50 mM NaF) was added to extraction buffer. The beads were washed with phosphate-buffered saline (PBS) containing 1% Triton X-100 and resuspended in 1X SDS-PAGE sample buffer. The phosphorylated samples were separated by 10% SDS-PAGE. ^32P-labeled bands were detected by autoradiography and quantitated with a PhosphorImager.
(§3) We next examined whether plants contain a CK2-like protein kinase activity that can phosphorylate CCA1 in vitro. […]

recombinant CK2 = assay: In vitro kinase assay: phosphorylation of GST-CCA1 by recombinant CK2; type: biochemical, Arabidopsis; details: 10 mM inhibitor, recombinant CK2, [γ-32P]ATP
Experimental: as §1, §2, §3

[2] = system: major DNA-protein complex containing CCA1; assay: EMSA: formation of the DNA-protein complex containing CCA1 in plant whole-cell extracts (A2 fragment of Lhcb1*3); type: biochemical, Arabidopsis; details: WCE preincubated 45 min at 30° C.
Experimental: WCE were incubated in the absence (lane 1) or presence (lane 2) of λ protein phosphatase (200 units added to 200 μl) for 30 min at 30° C. […] WCE from wild type (WT) and a CCA1-ox line (CCA1-ox) (7) grown in 12:12 photoperiods were used in the EMSA. […] WCE were incubated with the indicated inhibitor for 45 min at 30° C. Lane 1, no inhibitors; lane 2, 5 mM 2,3-diphosphoglycerate (D.G.); lane 3, 100 μM quercetin. Arrows indicate the position of the major DNA-protein complex containing CCA1.
CCA1 was incubated with 0.1 ng of end-labeled A2 fragment of the Arabidopsis Lhcb 1*3 gene (56) in the presence of 0.5 μg of poly(dI-dC) at 25° C. for 15 min. WCE were incubated in preincubation buffer (50 mM Tris-HCl, pH 7.5, 2 mM MnCl2, 5 mM DTT, 0.1 mM EDTA, 0.01% Brij 35) at 30° C. for 45 min, then incubated with the A2 probe in the presence of 1 μg of poly(dI-dC). The EMSA buffer and electrophoresis conditions have been described (56). DNA-protein complexes were detected by autoradiography.
The A2 fragment used as a probe includes known binding sites for G-box and CAAT binding proteins (56). […] Further evidence that the marked complex contains CCA1 includes the observations (data not shown) that this complex is absent in extracts prepared from CCA1-null mutant plants and that addition of anti-CCA1 antibodies inhibits its formation. […]

CK1 and CK2 = details: cited from earlier work

reduction of phosphorylation of CCA1 (recombinant CK2): 77%
Compound: 2,3-diphosphoglycerate
reduction of incorporation of ATP into GST-CCA1 [1]: 63% | formation of the DNA-protein complex containing CCA1 ([2]; 5 mM inhibitor): abolished | kinase inhibition specificity (CK1 and CK2): inhibits both CK1 and CK2

Compound: O=c1c(O)c(-c2ccc(O)c(O)c2)oc2cc(O)cc(O)c12 [quercetin]
formation of the DNA-protein complex containing CCA1 ([2]; 100 μM inhibitor): abolished | kinase inhibition specificity (CK1 and CK2): specific to CK2
